Data set [1] concerns Ras farnesylation. The note with it: cited from earlier work.
In data set [2] the test system is animal virus. The following applies: without affecting nucleic acid and protein biosynthesis; cited from earlier work.
Data set [3] deals with rodents. The note with it: rodents (mice, rats); cited from earlier work.
The test system of data set [4] is mice starved for a 48-hour period. The note with it: trace amount by oral route 2 hours before feed intake; 2-hour intake time; mice starved 48 hours; cited from earlier work.
For data set [5], the system named is arthritis in rats induced by adjuvant injection. The following applies: adjuvant injection into footpads; cited from earlier work.
The conditions of data set [6]: cited from earlier work.
Data set [7] has as its system Male ICR mice. Nature of the data set: Effect on serum total cholesterol: in-feed vs forced oral administration (Table 1). In kind it is in vivo. The note with it: 1 week, n = 6, tested in triplicate. The text has this:
In contrast, the solubility of Compound-1 in water is as extremely low as about 0.7 g/l; Compounds-1 and -2 are poles apart in terms of solubility in water. […] However, even when both compounds are simply mixed in a mechanical manner into feed in an amount of 0.1% or even when both compounds are given for forced oral administration in the same drug amount calculated from feed intake, there is no reproducibility in their efficacy unlike the case where their acetone solutions are sprayed over feed.

The subject of data set [8] is db/db mice. Description: Urinary sugar excretion in db/db mice: in-feed vs forced oral administration (Table 1). In kind it is in vivo. The note with it: for % Reduction of urinary sugar excretion: n = 4, tested in triplicate.
For data set [9], the system named is hypertensive rat models. The following applies: cited from earlier work.
Data set [10] in a line: Solubility in water.
The subject of data set [11] is ICR male mice. In kind it is in vivo. The following applies: added at 0.1% to feed, 1 week; control group 143. The text has this: Fifty ICR male mice (5 weeks of age) were randomly divided into 5 groups of 10 animals each and housed in polycarbonate cages at 5 animals per cage. […] […] After 1 week, the blood was collected from the heart of each mouse to determine the level of serum total cholesterol by an enzymatic method.

Data set [12] deals with C57BL/ksj db/db mice. Description: Effect on genetically obese diabetic mice: urinary sugar excretion (Example 6). In kind it is in vivo. On the procedure:
A solution of Compound-16 (1 g) in acetone (about 50 ml) was sprinkled over and mixed well with 1 kg of rodent standard feed (CE-2, CLEA Japan, Inc., Japan), followed by air-drying in a chamber. The content of Compound-16 in this feed was about 0.1%. In the same manner, pellet chow samples containing 0.05% to 0.025% of Compound-16 were prepared and used for the experiment. To prepare control feed, the same powder feed was sprinkled with acetone and palletized. Twenty male db/db mice (8 weeks of age after birth) were randomly divided into 4 groups. Each group was housed in a cage for urine collection and fed with the Compound-16-containing feed or the control feed for 21 days. During the housing, the mice were allowed to take feed and water ad libitum and their urine was collected at the intervals indicated in Table 1 to determine urinary sugar excretion by an enzymatic method. The level of urinary sugar excretion was expressed as the mean per animal.

Data set [13] deals with rodents. The following applies: cited from earlier work.
The target in data set [14] is T1, aromatase (Homo sapiens, UniProt P11511).
T1 sequence (P11511 1-503): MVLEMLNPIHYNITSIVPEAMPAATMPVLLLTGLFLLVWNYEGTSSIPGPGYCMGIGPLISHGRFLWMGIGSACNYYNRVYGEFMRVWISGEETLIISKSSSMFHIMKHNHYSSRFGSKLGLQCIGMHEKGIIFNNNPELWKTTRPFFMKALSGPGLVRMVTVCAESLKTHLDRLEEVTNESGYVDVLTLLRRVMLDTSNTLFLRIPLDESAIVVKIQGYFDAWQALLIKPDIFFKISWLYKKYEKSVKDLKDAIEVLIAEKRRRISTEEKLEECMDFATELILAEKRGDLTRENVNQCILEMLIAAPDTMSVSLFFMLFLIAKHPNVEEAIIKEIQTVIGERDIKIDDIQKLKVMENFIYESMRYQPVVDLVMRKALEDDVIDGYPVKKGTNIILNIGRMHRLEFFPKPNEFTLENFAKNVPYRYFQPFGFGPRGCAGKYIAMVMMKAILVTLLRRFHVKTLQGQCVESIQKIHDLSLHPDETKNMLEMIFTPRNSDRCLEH
The note with it: cited from earlier work.

Setting [15] is: Mechanical mixing into feed, 0.1%.
Setting [16] is: Spraying of acetone solution over feed, 0.1% in feed.

The source of these data is US7629471B2, “Transcriptional factor, process for producing the same and use thereof” (NRL Pharma, Inc., priority 2003, dated 2009).

Values joined by “and” are separate entries in the source; they are usually repeats but may differ in a detail not shown here. Identical values can stand only once. Like-named read-outs stand apart in the source and are kept apart here. Marks after values point to notes of the source that are not given here. Some results are limits rather than exact numbers.

As for `CC(C=C[C@]1(C)[C@H](C)C(=O)CC[C@@H]1C)=CCc1c(O)c(Cl)c(C)c(C=O)c1O` [Ascochlorin, 3-[5-[1(R),2(S),6(S)-trimethyl-3-oxocyclohexyl]-3-methyl-2,4-pentadienyl]-2,4-dihydroxy-5-chloro-6-methylbenzaldehyde], the “Inhibition of Ras farnesylation” value in [1] was “inhibited Ras farnesylation”. For the same molecule, the Animal virus growth result in [2] is “arrests animal virus growth”. Also, the Serum cholesterol lowering entry in data set [3] is “effect of lowering serum cholesterol”. Moreover, the “Anorectic effect (feed intake)” value in data set [4] was “half inhibition of feed intake”. Besides, the Inflammatory swelling result in data set [5] is on record as “alleviating inflammatory swelling”. Also, the “Absorption from the digestive tract” value in data set [6] (in vivo, po) was “most of them pass through the digestive tract without being absorbed”.
`COc1c(Cl)c(C)c(C=O)c(O)c1C/C=C(C)/C=C/[C@@]1(C)[C@H](C)CCC(=O)[C@@H]1C` [Compound-1, 4-O-methylascochlorin]: the “Decrease in serum cholesterol levels” value is given as “No decrease in all three” in data set [7] (Forced oral administration, same drug amount calculated from feed intake); “No decrease in all three tests” in data set [7] (setting [15]); 15.2%-25.1% decrease, P < 0.01 in [7] (setting [16]). Further, the “% Reduction of urinary sugar excretion” value in [8] (setting [15]) is listed as “No inhibitory effect is observed”. For the same molecule, the “Progression to renal failure” value in data set [9] is given as “prevent hypertensive rat models from entering renal failure”. Moreover, in [6] (orally administered to small animals (rats, mice) in the fasting state), the “Absorption from the digestive tract” value is “most of them pass through the digestive tract without being absorbed”. Moreover, the Solubility in water result in [10] was “about 0.7 g/l”. Further, the “Solubility in water (in words)” value in data set [10] is “substantially insoluble in water”.
For `CC(C=CC1(C)C(C)CCC(=O)C1C)=CCc1c(O)c(C=O)c(C)c(Cl)c1OCC(=O)O` (centres unmarked) [Compound-2, 4-O-carboxymethylascochlorin], in data set [7] (setting [16]), the “Decrease in serum cholesterol levels” value is 17.5%-22.7% decrease, P < 0.01. Also, the Toxic death in data set [8] (Forced oral administration, db/db mice, deaths/animals in first, second, third test) is 2/4 in the first test and 1/4 in the second test and 1/4 in the third test. Moreover, the “% Reduction of urinary sugar excretion” value in data set [8] (Forced oral administration) is “Not effective”. In data set [8] (Mechanical mixing into feed, db/db mice), the Body weight gain result is recorded as “body weight gain is inhibited”. Moreover, in [10] (in the small intestine (pH 7.2 to 7.4)), the “Amount dissolved in water” value is listed as ≥ 6%.
As for `CC(/C=C/[C@@]1(C)[C@H](C)CCC(=O)[C@@H]1C)=C\Cc1c(O)c(Cl)c(C)c(C=NCC(N)=O)c1O` [Compound-13], the Serum total cholesterol in data set [11] is on record as 112** mg/dl.
Turning to `CC(=O)N[C@@H](CCCCN=Cc1c(C)c(Cl)c(O)c(C/C=C(C)/C=C/[C@@]2(C)[C@H](C)CCC(=O)[C@@H]2C)c1O)C(=O)O` [Compound-16], the “Level of urinary sugar excretion” value was determined as 890 mg/mouse/day in data set [12] (0.025% in feed, 0 days (24 h urine beginning 1 day before initiation, baseline)); 600 mg/mouse/day in data set [12] (0.025% in feed, 1 day); 452 mg/mouse/day in data set [12] (0.025% in feed, 3 days); 175 mg/mouse/day in data set [12] (0.025% in feed, 7 days); 201 mg/mouse/day in data set [12] (0.025% in feed, 14 days); 134 mg/mouse/day in [12] (0.025% in feed, 21 days). Moreover, the “Level of urinary sugar excretion” value in data set [12] (0.05% in feed, 0 days (24 h urine beginning 1 day before initiation, baseline)) came out at 786 mg/mouse/day; in [12] (0.05% in feed, 1 day), 541 mg/mouse/day; in data set [12] (0.05% in feed, 3 days), 231 mg/mouse/day; in data set [12] (0.05% in feed, 7 days) it was 253 mg/mouse/day; in data set [12] (0.05% in feed, 14 days) it was 170 mg/mouse/day; in data set [12] (0.05% in feed, 21 days) it was 52 mg/mouse/day. In addition, the “Level of urinary sugar excretion” value in data set [12] (0.1% in feed, 0 days (24 h urine beginning 1 day before initiation, baseline)) is 814 mg/mouse/day; in data set [12] (0.1% in feed, 1 day), 187 mg/mouse/day; in data set [12] (0.1% in feed, 3 days) it was 30 mg/mouse/day; in data set [12] (0.1% in feed, 7 days), 15 mg/mouse/day; in data set [12] (0.1% in feed, 14 days), 10 mg/mouse/day; in data set [12] (0.1% in feed, 21 days) it was 10 mg/mouse/day.
As to `CC(=O)N[C@@H](CCCCN=Cc1c(C)c(Cl)c(OCC(=O)O)c(C/C=C(C)/C=C/[C@@]2(C)[C@H](C)CCC(=O)[C@@H]2C)c1O)C(=O)O` [Compound-19], the Serum total cholesterol in [11] is 95** mg/dl.
Turning to `C/C(=C\Cc1c(O)c(Cl)c(C)c(C=O)c1O)CC/C=C(\C)[C@@H]1CC(=O)C(C)(C)O1` [ascofuranone], the Serum cholesterol lowering result in data set [3] is “serum cholesterol-lowering effect”. In addition, the Anticancer effect result in data set [13] was “anticancer effect”. Moreover, the “Progression to renal failure” value in data set [9] is on record as “prevent hypertensive rat models from entering renal failure”.
In the case of `CC(/C=C/[C@@]1(C)[C@H](C)C=CC(=O)[C@@H]1C)=C\Cc1c(O)c(Cl)c(C)c(C=O)c1O` [cylindrochlorin], the Aromatase inhibition entry in [14] was “strong inhibitory substance”. For the same molecule, in data set [3], the Serum cholesterol lowering entry is “stronger effect of lowering serum cholesterol”.
